Laboratory results reported in the CheMixHub viscosity set.
± gives the uncertainty stated by the source.

Assay: xn = mol fraction of the nth substance listed

For `NC(N)=O` + O, the viscosity (293.15 K, 100 kPa, x1 = 0.00045) was 1.018 ± 0.022 mPa·s, the viscosity (293.15 K, 100 kPa, x1 = 0.0009) was 1.027 ± 0.022 mPa·s and the viscosity (293.15 K, 100 kPa, x1 = 0.0013) was 1.041 ± 0.022 mPa·s. For the same compound, the viscosity (293.15 K, 101 kPa, x1 = 0.0003382) was 1.002 ± 0.0068 mPa·s, the viscosity (293.15 K, 101 kPa, x1 = 0.0005695) was 1.003 ± 0.0068 mPa·s and the viscosity (293.15 K, 101 kPa, x1 = 0.0009893) was 1.003 ± 0.0068 mPa·s. The viscosity (293.15 K, 101 kPa, x1 = 0.001265) was 1.004 ± 0.0068 mPa·s, the viscosity (293.15 K, 101 kPa, x1 = 0.00161) was 1.004 ± 0.0068 mPa·s and the viscosity (293.15 K, 101 kPa, x1 = 0.002015) was 1.005 ± 0.0068 mPa·s. It also gave a viscosity (293.15 K, 101 kPa, x1 = 0.002546) of 1.006 ± 0.0068 mPa·s, a viscosity (293.15 K, 101 kPa, x1 = 0.002806) of 1.006 ± 0.0069 mPa·s and a viscosity (293.15 K, 101 kPa, x1 = 0.0486) of 0.872 ± 0.12 mPa·s. It also gave a viscosity (293.15 K, 101 kPa, x1 = 0.0994) of 0.991 ± 0.15 mPa·s, a viscosity (293.15 K, 101 kPa, x1 = 0.1318) of 1.087 ± 0.17 mPa·s and a viscosity (294.75 K, 101 kPa, x1 = 0.0219) of 0.9356 ± 0.026 mPa·s. For the same compound, the viscosity (294.75 K, 101 kPa, x1 = 0.04201) was 1.072 ± 0.029 mPa·s, the viscosity (294.75 K, 101 kPa, x1 = 0.05343) was 1.101 ± 0.03 mPa·s and the viscosity (294.75 K, 101 kPa, x1 = 0.0565) was 1.157 ± 0.032 mPa·s. It also gave a viscosity (298.15 K, 100 kPa, x1 = 0.00045) of 0.911 ± 0.019 mPa·s, a viscosity (298.15 K, 100 kPa, x1 = 0.0009) of 0.927 ± 0.02 mPa·s and a viscosity (298.15 K, 100 kPa, x1 = 0.0013) of 0.94 ± 0.02 mPa·s. For the same compound, the viscosity (298.15 K, 101 kPa, x1 = 0.0003802) was 0.8909 ± 0.0061 mPa·s, the viscosity (298.15 K, 101 kPa, x1 = 0.0009168) was 0.8918 ± 0.0061 mPa·s and the viscosity (298.15 K, 101 kPa, x1 = 0.001355) was 0.8925 ± 0.0061 mPa·s. The viscosity (298.15 K, 101 kPa, x1 = 0.00169) was 0.893 ± 0.0062 mPa·s, the viscosity (298.15 K, 101 kPa, x1 = 0.001993) was 0.8935 ± 0.0062 mPa·s and the viscosity (298.15 K, 101 kPa, x1 = 0.00247) was 0.8943 ± 0.0062 mPa·s. For the same compound, the viscosity (298.15 K, 101 kPa, x1 = 0.00308) was 0.895 ± 0.18 mPa·s, the viscosity (298.15 K, 101 kPa, x1 = 0.003109) was 0.8953 ± 0.0062 mPa·s and the viscosity (298.15 K, 101 kPa, x1 = 0.00368) was 0.8962 ± 0.0062 mPa·s. The viscosity (298.15 K, 101 kPa, x1 = 0.0259) was 0.939 ± 0.19 mPa·s, the viscosity (298.15 K, 101 kPa, x1 = 0.0389) was 0.969 ± 0.19 mPa·s and the viscosity (298.15 K, 101 kPa, x1 = 0.05204) was 1.035 ± 0.21 mPa·s. It also gave a viscosity (298.15 K, 101 kPa, x1 = 0.08275) of 1.088 ± 0.22 mPa·s, a viscosity (298.15 K, 101 kPa, x1 = 0.1302) of 1.252 ± 0.25 mPa·s and a viscosity (298.15 K, 101 kPa, x1 = 0.156) of 1.348 ± 0.27 mPa·s. For the same compound, the viscosity (298.15 K, 101 kPa, x1 = 0.2047) was 1.561 ± 0.31 mPa·s, the viscosity (303.15 K, 100 kPa, x1 = 0.00045) was 0.824 ± 0.018 mPa·s and the viscosity (303.15 K, 100 kPa, x1 = 0.0009) was 0.839 ± 0.018 mPa·s. The viscosity (303.15 K, 100 kPa, x1 = 0.0013) was 0.849 ± 0.018 mPa·s, the viscosity (303.15 K, 101 kPa, x1 = 0.000464) was 0.798 ± 0.0056 mPa·s and the viscosity (303.15 K, 101 kPa, x1 = 0.001107) was 0.799 ± 0.0056 mPa·s. For the same compound, the viscosity (303.15 K, 101 kPa, x1 = 0.001607) was 0.7999 ± 0.0056 mPa·s, the viscosity (303.15 K, 101 kPa, x1 = 0.002024) was 0.8005 ± 0.0056 mPa·s and the viscosity (303.15 K, 101 kPa, x1 = 0.002271) was 0.8009 ± 0.0056 mPa·s. For the same compound, the viscosity (303.15 K, 101 kPa, x1 = 0.002742) was 0.8016 ± 0.0056 mPa·s, the viscosity (303.15 K, 101 kPa, x1 = 0.003158) was 0.8024 ± 0.0056 mPa·s and the viscosity (303.15 K, 101 kPa, x1 = 0.003416) was 0.8028 ± 0.0056 mPa·s. The viscosity (308.15 K, 100 kPa, x1 = 0.00045) was 0.744 ± 0.016 mPa·s, the viscosity (308.15 K, 100 kPa, x1 = 0.0009) was 0.755 ± 0.016 mPa·s and the viscosity (308.15 K, 100 kPa, x1 = 0.0013) was 0.77 ± 0.016 mPa·s. It also gave a viscosity (308.15 K, 101 kPa, x1 = 0.0003775) of 0.7197 ± 0.0051 mPa·s, a viscosity (308.15 K, 101 kPa, x1 = 0.0006463) of 0.7201 ± 0.0051 mPa·s and a viscosity (308.15 K, 101 kPa, x1 = 0.001149) of 0.721 ± 0.0051 mPa·s. For the same compound, the viscosity (308.15 K, 101 kPa, x1 = 0.001425) was 0.7214 ± 0.0051 mPa·s, the viscosity (308.15 K, 101 kPa, x1 = 0.001907) was 0.7223 ± 0.0051 mPa·s and the viscosity (308.15 K, 101 kPa, x1 = 0.002218) was 0.7227 ± 0.0051 mPa·s. For the same compound, the viscosity (308.15 K, 101 kPa, x1 = 0.002872) was 0.7238 ± 0.0051 mPa·s, the viscosity (308.15 K, 101 kPa, x1 = 0.003309) was 0.7246 ± 0.0051 mPa·s and the viscosity (308.15 K, 101 kPa, x1 = 0.018) was 0.65 ± 0.014 mPa·s. For the same compound, the viscosity (308.15 K, 101.33 kPa, x1 = 0.0177) was 0.7612 ± 0.0068 mPa·s, the viscosity (308.15 K, 101.33 kPa, x1 = 0.03479) was 0.7944 ± 0.0071 mPa·s and the viscosity (308.15 K, 101.33 kPa, x1 = 0.05127) was 0.8302 ± 0.0074 mPa·s. The viscosity (308.15 K, 101.33 kPa, x1 = 0.06723) was 0.8754 ± 0.0078 mPa·s, the viscosity (308.15 K, 101.33 kPa, x1 = 0.08263) was 0.916 ± 0.0081 mPa·s and the viscosity (308.15 K, 101.33 kPa, x1 = 0.09755) was 0.9544 ± 0.0084 mPa·s. The viscosity (308.15 K, 101.33 kPa, x1 = 0.112) was 1.02 ± 0.009 mPa·s, the viscosity (308.15 K, 101.33 kPa, x1 = 0.126) was 1.049 ± 0.0092 mPa·s and the viscosity (308.15 K, 101.33 kPa, x1 = 0.1395) was 1.077 ± 0.0094 mPa·s. The viscosity (313.15 K, 100 kPa, x1 = 0.00045) was 0.678 ± 0.014 mPa·s, the viscosity (313.15 K, 100 kPa, x1 = 0.0009) was 0.692 ± 0.015 mPa·s and the viscosity (313.15 K, 100 kPa, x1 = 0.0013) was 0.712 ± 0.015 mPa·s. The viscosity (313.15 K, 101.33 kPa, x1 = 0.0177) was 0.6912 ± 0.0062 mPa·s, the viscosity (313.15 K, 101.33 kPa, x1 = 0.03479) was 0.7169 ± 0.0065 mPa·s and the viscosity (313.15 K, 101.33 kPa, x1 = 0.05127) was 0.7568 ± 0.0068 mPa·s. It also gave a viscosity (313.15 K, 101.33 kPa, x1 = 0.06723) of 0.7895 ± 0.0071 mPa·s, a viscosity (313.15 K, 101.33 kPa, x1 = 0.08263) of 0.8365 ± 0.0074 mPa·s and a viscosity (313.15 K, 101.33 kPa, x1 = 0.09755) of 0.8702 ± 0.0077 mPa·s. It also gave a viscosity (313.15 K, 101.33 kPa, x1 = 0.112) of 0.914 ± 0.0081 mPa·s, a viscosity (313.15 K, 101.33 kPa, x1 = 0.126) of 0.9479 ± 0.0084 mPa·s and a viscosity (313.15 K, 101.33 kPa, x1 = 0.1395) of 0.9819 ± 0.0087 mPa·s. For the same compound, the viscosity (318.15 K, 101 kPa, x1 = 0.018) was 0.533 ± 0.011 mPa·s, the viscosity (318.15 K, 101.33 kPa, x1 = 0.0177) was 0.6293 ± 0.0057 mPa·s and the viscosity (318.15 K, 101.33 kPa, x1 = 0.03479) was 0.6557 ± 0.006 mPa·s. It also gave a viscosity (318.15 K, 101.33 kPa, x1 = 0.05127) of 0.6939 ± 0.0063 mPa·s, a viscosity (318.15 K, 101.33 kPa, x1 = 0.06723) of 0.7263 ± 0.0066 mPa·s and a viscosity (318.15 K, 101.33 kPa, x1 = 0.08263) of 0.7712 ± 0.0069 mPa·s. The viscosity (318.15 K, 101.33 kPa, x1 = 0.09755) was 0.7978 ± 0.0072 mPa·s, the viscosity (318.15 K, 101.33 kPa, x1 = 0.112) was 0.8423 ± 0.0075 mPa·s and the viscosity (318.15 K, 101.33 kPa, x1 = 0.126) was 0.8735 ± 0.0078 mPa·s. For the same compound, the viscosity (318.15 K, 101.33 kPa, x1 = 0.1395) was 0.9047 ± 0.0081 mPa·s, the viscosity (323.15 K, 101.33 kPa, x1 = 0.0177) was 0.5841 ± 0.0054 mPa·s and the viscosity (323.15 K, 101.33 kPa, x1 = 0.03479) was 0.6023 ± 0.0055 mPa·s. For the same compound, the viscosity (323.15 K, 101.33 kPa, x1 = 0.05127) was 0.6485 ± 0.0059 mPa·s, the viscosity (323.15 K, 101.33 kPa, x1 = 0.06723) was 0.6694 ± 0.0061 mPa·s and the viscosity (323.15 K, 101.33 kPa, x1 = 0.08263) was 0.7012 ± 0.0064 mPa·s. For the same compound, the viscosity (323.15 K, 101.33 kPa, x1 = 0.09755) was 0.7261 ± 0.0066 mPa·s, the viscosity (323.15 K, 101.33 kPa, x1 = 0.112) was 0.7788 ± 0.007 mPa·s and the viscosity (323.15 K, 101.33 kPa, x1 = 0.126) was 0.803 ± 0.0072 mPa·s. It also gave a viscosity (323.15 K, 101.33 kPa, x1 = 0.1395) of 0.8273 ± 0.0074 mPa·s.
